Measured values reported in PubChem BioAssay AID2060491 (Molecular Pharmacology Branch, DTP, NCI, 2025).
Where “and” joins values, the source holds several entries; their conditions need not be identical. Identical values can stand only once.

Test system: 857933-349-R-J2-PDC complex spheroids, viability
Test: Anticancer human tumor 857933-349-R-J2-PDC patient-derived colon adenocarcinoma cell line growth inhibition [GQUAD]
Conditions: for viability, T/C: stronger effect = lower value
From the text: DNA G-quadruplex Stabilizer Agents in Combinations in Complex Spheroids
A high-throughput screen of multi-cell type tumor spheroids was designed to identify active combinations of DNA G-quadruplex stabilizer agents and targeted small molecules. Complex spheroids include a stromal component modeled by human endothelial cells (HUVEC) and fibroblasts modeled by human mesenchymal stem cells (MSCs). The concentration ranges selected for each drug and investigational agent were based upon clinically achievable concentrations if the clinical Cmax of the agent was known.
Compounds. The drugs and investigational agents: pidnarulex (CX-5461; NSC782164), APTO-253 (NSC789042), BRACO-19 (NSC847499), peposertib (NSC802822), ceralasertib (NSC780249), elimusertib (NSC800525), camonsertib (NSC841442), AZD-1390 (NSC803789), olaparib (NSC753686), talazoparib (NSC767125), ART-558 (NSC835418), sotorasib (NSC818433), MRTX-1133 (NSC836407), SN-38 (NSC673596), topotecan (NSC609699), etoposide (NSC141540), doxorubicin (NSC123127), gemcitabine (NSC613327), 5-fluorouracil (NSC19893), paclitaxel (NSC125973), vemurafenib (NSC761431), panobinostat (NSC761190), R-306465 (JNJ-16241199; NSC773264), adavosertib (NSC754352), TP-3654 (NSC805149), carboplatin (NSC241240), KSQ-4279 (NSC840948), and staurosporine (NSC755774) were obtained from the National Cancer Institute (NCI) Developmental Therapeutics Program Chemical Repository (34). The FDA-approved anticancer drug set is available from the NCI Developmental Therapeutics Program. […] The stock solutions were prepared in dimethyl sulfoxide (DMSO, Sigma-Aldrich, St. Louis, MO, cat. D2650) at 800-fold the tested concentration and stored at -70 degrees C prior to their use. All drugs and investigational agents were tested over a range starting from a high concentration at or near the clinical Cmax and decreasing in half-log increments. If the clinical Cmax for an agent had not been determined, the highest concentration tested was 10 microM.
2.3 Cell Culture. All cells were maintained in an incubator at 37 degrees C and 5% CO2 with 95% humidity. The PDC lines were cultured according to standard operating procedures established by the NCI PDMR. All PDCs were thawed and cultured in Matrigel-coated flasks prepared with a working solution of 1X Ham's F-12 nutrient mix, without supplementation (Invitrogen, cat. 11765054), 100 U/mL penicillin-streptomycin (Invitrogen, cat. 15140122), and 2.5% Matrigel (Corning Inc., cat. 354248) for the first three passages. The 857933-349-R-J2-PDC line was cultured in 6C/Colon 1B media, which includes advanced DMEM/F-12 (Thermo Fisher Scientific, cat. 12634028), 10 mM HEPES (Thermo Fisher Scientific, cat. 15630080), 1X GlutaMAX supplement (Thermo Fisher Scientific, cat. 35050061), 0.1 mg/mL primocin (InvivoGen, cat. ant-pm-2), 10% defined fetal bovine serum, heat inactivated (HyClone Laboratories Inc., cat. SH30070.03HI), 50% L-WRN conditioned media (ATCC, cat. CRL-3276), 1.25 mM N-Acetyl-L-cysteine (Sigma-Aldrich, cat. A9165), 10 mM nicotinamide (Sigma-Aldrich, cat. N0636), 1X B-27 supplement (Thermo Fisher Scientific, cat. 17504044), 1X N-2 supplement (Thermo Fisher Scientific, cat. 17502048), 10 microM Y-27632 dihydrochloride (Tocris Bioscience, cat. 1254), and 50 ng/mL human EGF recombinant protein (Thermo Fisher Scientific, cat. PHG0311). The 485176-168-R4-J1-PDC line was cultured in Panc media, which includes all 6C/Colon 1B media components plus 100 ng/mL human FGF-10 (Thermo Fisher Scientific, cat. 100-26), 500 nM SB-431542 (Selleckchem, cat. S1067), and gastrin (Tocris, cat. 3006).
[…]
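Further: spheroids exposed to compounds for one week before readout.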
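Wherever viability, T/C is given: percent viability relative to vehicle DMSO wells taken as 100%.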

O=C(NO)c1cnc(N2CCN(S(=O)(=O)c3ccc4ccccc4c3)CC2)nc1
viability, T/C (compound 0.0316 µM): 112% and 103% and 107% | viability, T/C (compound 0.1 µM): 105% and 103% and 92.6% | viability, T/C (compound 0.316 µM): 104% and 103% and 82.3% | viability, T/C (compound 1 µM): 75.6% and 75% and 19.8% | viability, T/C (compound 3.16 µM): 0.92% and 0.99% and 0.08% | viability, T/C (compound 10 µM): 0.38% and 0.52% and 0.08% | IC50 (curve of compound): 1.49 µM and 1.48 µM and 0.57 µM

C=CCn1c(=O)c2cnc(Nc3ccc(N4CCN(C)CC4)cc3)nc2n1-c1cccc(C(C)(C)O)n1
viability, T/C (compound 0.0316 µM): 102% and 105% and 106% | viability, T/C (compound 0.1 µM): 99.4% and 100% and 96.3% | viability, T/C (compound 0.316 µM): 95.1% and 97.1% and 97.4% | viability, T/C (compound 1 µM): 66.4% and 72.8% and 47.7% | viability, T/C (compound 3.16 µM): 26.8% and 27.4% and 8.15% | viability, T/C (compound 10 µM): 28.5% and 27% and 10.6% | IC50 (curve of compound): 1.64 µM and 1.8 µM and 0.945 µM

COc1cc(C2c3cc4c(cc3C(OC3OC5COC(C)OC5C(O)C3O)C3COC(=O)C23)OCO4)cc(OC)c1O (centres undefined)
viability, T/C (compound 0.0316 µM): 86.8% and 82.9% and 104% | viability, T/C (compound 0.1 µM): 53.1% and 58.3% and 93.6% | viability, T/C (compound 0.316 µM): 55.8% and 48.1% and 82.6% | viability, T/C (compound 1 µM): 48.6% and 52.9% and 78.4% | viability, T/C (compound 3.16 µM): 42.6% and 39.1% and 59.5% | viability, T/C (compound 10 µM): 27.6% and 27.1% and 41.6%

Cc1[nH]c2ccccc2c1CCNCc1ccc(/C=C/C(=O)NO)cc1
viability, T/C (compound 0.000999 µM): 100% and 105% (2×) | viability, T/C (compound 0.00316 µM): 102% (2×) and 105% | viability, T/C (compound 0.00999 µM): 102% and 112% and 104% | viability, T/C (compound 0.0316 µM): 107% and 104% and 96.4% | viability, T/C (compound 0.0999 µM): 102% (2×) and 94.5% | viability, T/C (compound 0.316 µM): 53% and 66.9% and 44.9% | IC50 (curve of compound): > 0.316 µM and 0.283 µM

Cc1cnc(CNC(=O)c2c(=O)c3ccc(N4CCCN(C)CC4)nc3n3c2sc2ccccc23)cn1
viability, T/C (compound 0.0316 µM): 92.5% [middle of 12 runs] | viability, T/C (compound 0.1 µM): 69.2% [middle of 11 runs] | viability, T/C (compound 0.316 µM): 26.9% [middle of 12 runs] | viability, T/C (compound 1 µM): 5.05% [middle of 12 runs] | viability, T/C (compound 3.16 µM): 2.9% [middle of 12 runs] | viability, T/C (compound 10 µM): 1.41% [middle of 12 runs] | IC50 (compound alone, run of 02/20/2024): 169 nM [middle of 10 runs]

C=CCn1c(=O)c2cnc(Nc3ccc(N4CCN(C)CC4)cc3)nc2n1-c1cccc(C(C)(C)O)n1 + Cc1[nH]c2ccc(F)cc2c1-c1nc2c3cccnc3c3ncccc3c2[nH]1
IC50 (curve of first compound, second compound 0.0316 µM): 1.93 µM | IC50 (curve of first compound, second compound 0.1 µM): 1.92 µM | IC50 (curve of first compound, second compound 0.316 µM): 1.47 µM | IC50 (curve of first compound, second compound 1 µM): 1.57 µM | IC50 (curve of first compound, second compound 3.16 µM): 0.96 µM | IC50 (curve of first compound, second compound 10 µM): 1.39 µM | viability, T/C (second compound 0.0316 µM, first compound 0.0316 µM): 107% | viability, T/C (second compound 0.0316 µM, first compound 0.1 µM): 99.1% | viability, T/C (second compound 0.0316 µM, first compound 0.316 µM): 94.5% | viability, T/C (second compound 0.0316 µM, first compound 1 µM): 77% | viability, T/C (second compound 0.0316 µM, first compound 3.16 µM): 28.8% | viability, T/C (second compound 0.0316 µM, first compound 10 µM): 27.8% | viability, T/C (second compound 0.1 µM, first compound 0.0316 µM): 105% | viability, T/C (second compound 0.1 µM, first compound 0.1 µM): 104% | viability, T/C (second compound 0.1 µM, first compound 0.316 µM): 97.2% | viability, T/C (second compound 0.1 µM, first compound 1 µM): 81.5% | viability, T/C (second compound 0.1 µM, first compound 3.16 µM): 25.4% | viability, T/C (second compound 0.1 µM, first compound 10 µM): 24% | viability, T/C (second compound 0.316 µM, first compound 0.0316 µM): 107% | viability, T/C (second compound 0.316 µM, first compound 0.1 µM): 98.1% | viability, T/C (second compound 0.316 µM, first compound 0.316 µM): 94% | viability, T/C (second compound 0.316 µM, first compound 1 µM): 62.7% | viability, T/C (second compound 0.316 µM, first compound 3.16 µM): 24.2% | viability, T/C (second compound 0.316 µM, first compound 10 µM): 26% | viability, T/C (second compound 1 µM, first compound 0.0316 µM): 98.5% | viability, T/C (second compound 1 µM, first compound 0.1 µM): 86.1% | viability, T/C (second compound 1 µM, first compound 0.316 µM): 86% | viability, T/C (second compound 1 µM, first compound 1 µM): 63.4% | viability, T/C (second compound 1 µM, first compound 3.16 µM): 29.6% | viability, T/C (second compound 1 µM, first compound 10 µM): 23.9% | viability, T/C (second compound 3.16 µM, first compound 0.0316 µM): 94.8% | viability, T/C (second compound 3.16 µM, first compound 0.1 µM): 76% | viability, T/C (second compound 3.16 µM, first compound 0.316 µM): 78.1% | viability, T/C (second compound 3.16 µM, first compound 1 µM): 48.7% | viability, T/C (second compound 3.16 µM, first compound 3.16 µM): 27.8% | viability, T/C (second compound 3.16 µM, first compound 10 µM): 24.5% | viability, T/C (second compound 10 µM, first compound 0.0316 µM): 86.1% | viability, T/C (second compound 10 µM, first compound 0.1 µM): 77.8% | viability, T/C (second compound 10 µM, first compound 0.316 µM): 75.3% | viability, T/C (second compound 10 µM, first compound 1 µM): 58.7% | viability, T/C (second compound 10 µM, first compound 3.16 µM): 30% | viability, T/C (second compound 10 µM, first compound 10 µM): 24.9%

Cc1cccc(N(C)C(=O)C2C(O)CCN2c2nc(C)cc(C(F)(F)F)c2C#N)c1 (centres undefined)
viability, T/C (compound 0.0316 µM): 104% and 102% and 105% | viability, T/C (compound 0.1 µM): 93.1% and 96.1% and 98.8% | viability, T/C (compound 0.316 µM): 107% and 103% and 101% | viability, T/C (compound 1 µM): 91.1% and 105% and 94.8% | viability, T/C (compound 3.16 µM): 114% and 105% and 106% | viability, T/C (compound 10 µM): 91.3% and 104% and 91.7% | IC50 (curve of compound): > 10 µM

CC1COCCN1c1cc(C2(O)CC3CCC(C2)O3)c2cnn(-c3ccn[nH]3)c2n1 (centres undefined)
viability, T/C (compound 0.0316 µM): 68.6% and 76.9% and 98% | viability, T/C (compound 0.1 µM): 52% and 53% and 88.7% | viability, T/C (compound 0.316 µM): 43.7% and 48.3% and 77.2% | viability, T/C (compound 1 µM): 38.1% and 42% and 63.5% | viability, T/C (compound 3.16 µM): 46.3% and 45.1% and 55.5% | viability, T/C (compound 10 µM): 37.5% and 47.3% and 50.1%
